Test results reported in patent US9434743B2, “Indazole derivatives” (TAKEDA PHARMACEUTICAL COMPANY LIMITED, priority 2012, dated 2016).

Experiments:
human MetAP2 enzyme [1] = biological target: T1, human MetAP2 enzyme (Homo sapiens, UniProt P50579); test: MetAP2 enzyme assay, enzyme complexed with manganese ions; conditions: MetAP2 Mn pIC50, MetAP2 enzyme complexed with manganese ions; Met-AMC substrate at Km
human MetAP2 enzyme [2] = biological target: T1, human MetAP2 enzyme; test: MetAP2 enzyme assay, enzyme complexed with cobalt ions; conditions: MetAP2 Co pIC50, MetAP2 enzyme complexed with cobalt ions; Met-AMC substrate at Km

T1 sequence (P50579 whole entry): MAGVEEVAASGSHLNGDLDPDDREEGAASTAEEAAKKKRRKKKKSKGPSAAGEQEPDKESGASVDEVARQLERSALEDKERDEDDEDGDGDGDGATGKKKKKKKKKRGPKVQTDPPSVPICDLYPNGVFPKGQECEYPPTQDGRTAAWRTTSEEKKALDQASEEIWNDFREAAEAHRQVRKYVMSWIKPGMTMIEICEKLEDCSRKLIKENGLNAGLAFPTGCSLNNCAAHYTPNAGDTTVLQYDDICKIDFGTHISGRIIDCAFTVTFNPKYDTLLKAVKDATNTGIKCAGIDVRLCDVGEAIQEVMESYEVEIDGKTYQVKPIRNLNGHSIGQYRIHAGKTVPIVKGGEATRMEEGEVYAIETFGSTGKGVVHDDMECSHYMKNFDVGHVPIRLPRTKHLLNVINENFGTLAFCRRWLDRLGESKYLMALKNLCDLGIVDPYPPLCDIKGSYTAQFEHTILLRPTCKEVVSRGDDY

Row | IC50 (human MetAP2 enzyme [1]) [nM] | IC50 (human MetAP2 enzyme [2]) [nM] | SMILES
1 | 6.31 | 39.8 | Cc1nc(C(N)=O)ccc1-c1cc(C(F)(F)F)cc2[nH]ncc12 [Example 379, 6-methyl-5-(6-(trifluoromethyl)-1H-indazol-4-yl)picolinamide]
2 | 7.94 | 25.1 | COCC(=O)Nc1ccc(-c2cc(C(F)(F)F)cc3[nH]ncc23)c(C)n1 [Example 258, 2-methoxy-N-(6-methyl-5-(6-(trifluoromethyl)-1H-indazol-4-yl)pyridin-2-yl)acetamide]
3 | 251 | 2000 | CC(=O)Nc1cccnc1-c1cc(C(F)(F)F)cc2[nH]ncc12 [Example 218, N-(2-(6-(trifluoromethyl)-1H-indazol-4-yl)pyridin-3-yl)acetamide]
4 | 5.01 | 126 | FC(F)(F)c1cc(-c2cnc3ccnn3c2)c2cn[nH]c2c1 [Example 275, 6-(6-(trifluoromethyl)-1H-indazol-4-yl)pyrazolo[1,5-a]pyrimidine]
5 | 12.6 | 79.4 | CN(C)S(=O)(=O)c1cccc(-c2cc(C(F)(F)F)cc3[nH]ncc23)c1 [Example 108, N,N-dimethyl-3-(6-(trifluoromethyl)-1H-indazol-4-yl)benzenesulfonamide]
6 | 6.31 | 79.4 | O=C(NCCO)c1cc(-c2cc(C(F)(F)F)cc3[nH]ncc23)ccn1 [Example 308, N-(2-hydroxyethyl)-4-(6-(trifluoromethyl)-1H-indazol-4-yl)picolinamide]
7 | 3.16 | 20 | CN1CCN(C(=O)c2cccc(-c3cc(C(F)(F)F)cc4[nH]ncc34)c2)CC1 [Example 84, (4-methylpiperazin-1-yl)(3-(6-(trifluoromethyl)-1H-indazol-4-yl)phenyl)methanone]
8 | 6.31 | 316 | Cn1cc(C(=O)NCC#N)cc(-c2cc(C(F)(F)F)cc3[nH]ncc23)c1=O [Example 354, N-(cyanomethyl)-1-methyl-6-oxo-5-(6-(trifluoromethyl)-1H-indazol-4-yl)-1,6-dihydropyridine-3-carboxamide]
9 | 12.6 | 31.6 | Cn1ncc2ccc(-c3cc(C(F)(F)F)cc4[nH]ncc34)cc21 [Example 24, 1′-methyl-6-(trifluoromethyl)-1H,1′H-4,6′-biindazole]
10 | 10 | 100 | COC(=O)c1c[nH]c(=O)c(-c2cc(C(F)(F)F)cc3[nH]ncc23)c1 [Example 265, methyl 6-oxo-5-(6-(trifluoromethyl)-1H-indazol-4-yl)-1,6-dihydropyridine-3-carboxylate]
11 | 15.8 | 39.8 | FC(F)(F)c1cc(-c2cccnc2OC2CCCC2)c2cn[nH]c2c1 [Example 98, 4-(2-(cyclopentyloxy)pyridin-3-yl)-6-(trifluoromethyl)-1H-indazole]
12 | 3.98 | 126 | Cc1c(-c2cc(C(F)(F)F)cc3[nH]ncc23)ccc2nnnn12 [Example 398, 5-methyl-6-(6-(trifluoromethyl)-1H-indazol-4-yl)tetrazolo[1,5-a]pyridine]
13 | 6.31 | 79.4 | OCCNc1ncc(-c2cc(C(F)(F)F)cc3[nH]ncc23)cn1 [Example 209, 2-(5-(6-(trifluoromethyl)-1H-indazol-4-yl)pyrimidin-2-ylamino)ethanol]
14 | 12.6 | 39.8 | COc1cc(C(=O)N2CCOCC2)ccc1-c1cc(C(F)(F)F)cc2[nH]ncc12 [Example 318, (3-methoxy-4-(6-(trifluoromethyl)-1H-indazol-4-yl)phenyl)(morpholino)methanone]
15 | 10 | 50.1 | N#CCOc1ccccc1-c1cc(C(F)(F)F)cc2[nH]ncc12 [Example 93, 2-(2-(6-(trifluoromethyl)-1H-indazol-4-yl)phenoxy)acetonitrile]
16 | 6.31 | 63.1 | FC(F)(F)c1cc(-c2cnc(NC3CC3)nc2)c2cn[nH]c2c1 [Example 197, N-cyclopropyl-5-(6-(trifluoromethyl)-1H-indazol-4-yl)pyrimidin-2-amine]
17 | 1.58 | 7.94 | O=C(NCCO)c1ccc(-c2cc(C(F)(F)F)cc3[nH]ncc23)cc1 [Example 130, N-(2-hydroxyethyl)-4-(6-(trifluoromethyl)-1H-indazol-4-yl)benzamide]
18 | 12.6 | 100 | FC(F)(F)c1cc(-c2ccc(-c3ccn[nH]3)cc2)c2cn[nH]c2c1 [Example 62, 4-(4-(1H-pyrazol-5-yl)phenyl)-6-(trifluoromethyl)-1H-indazole]
19 | 50.1 | 316 | COc1ccc(C)nc1-c1cc(C(F)(F)F)cc2[nH]ncc12 [Example 200, 4-(3-methoxy-6-methylpyridin-2-yl)-6-(trifluoromethyl)-1H-indazole]
20 | 25.1 | 100 | CCCOc1ncccc1-c1cc(C(F)(F)F)cc2[nH]ncc12 [Example 134, 4-(2-propoxypyridin-3-yl)-6-(trifluoromethyl)-1H-indazole]

Row | IC50 (human MetAP2 enzyme [1]) [nM] | IC50 (human MetAP2 enzyme [2]) [nM] | SMILES
21 | 10 | 126 | COc1ncc(-c2cc(C(F)(F)F)cc3[nH]ncc23)c(N)n1 [Example 256, 2-methoxy-5-(6-(trifluoromethyl)-1H-indazol-4-yl)pyrimidin-4-amine]
22 | 15.8 | 50.1 | Cc1ccc(C(=O)N2CCC(CO)C2)cc1-c1cc(C(F)(F)F)cc2[nH]ncc12 (centres unmarked) [Example 371, (3-(hydroxymethyl)pyrrolidin-1-yl)(4-methyl-3-(6-(trifluoromethyl)-1H-indazol-4-yl)phenyl)methanone]
23 | 12.6 | 10 | COCc1[nH]nc(C)c1-c1cc(C(F)(F)F)cc2[nH]ncc12 [Example 323, 4-(5-(methoxymethyl)-3-methyl-1H-pyrazol-4-yl)-6-(trifluoromethyl)-1H-indazole]
24 | 6.31 | 25.1 | FC(F)(F)c1cc(-c2cnn3ccccc23)c2cn[nH]c2c1 [Example 41, 4-(pyrazolo[1,5-a]pyridin-3-yl)-6-(trifluoromethyl)-1H-indazole]
25 | 12.6 | 39.8 | CN1CCOc2cc(-c3cc(C(F)(F)F)cc4[nH]ncc34)cnc21 [Example 122, 4-methyl-7-(6-(trifluoromethyl)-1H-indazol-4-yl)-3,4-dihydro-2H-pyrido[3,2-b][1,4]oxazine]
26 | 12.6 | 126 | COc1nc(C#N)ccc1-c1cc(C(F)(F)F)cc2[nH]ncc12 [Example 396, 6-methoxy-5-(6-(trifluoromethyl)-1H-indazol-4-yl)picolinonitrile]
27 | 12.6 | 200 | COc1nc(Cl)ccc1-c1cc(C(F)(F)F)cc2[nH]ncc12 [Example 392, 4-(6-chloro-2-methoxypyridin-3-yl)-6-(trifluoromethyl)-1H-indazole]
28 | 20 | 794 | COc1ccc(-c2cc(C(F)(F)F)cc3[nH]ncc23)c(C(N)=O)n1 [Example 201, 6-methoxy-3-(6-(trifluoromethyl)-1H-indazol-4-yl)picolinamide]
29 | 3.16 | 31.6 | N#CCc1cccc(-c2cc(C(F)(F)F)cc3[nH]ncc23)c1 [Example 90, 2-(3-(6-(trifluoromethyl)-1H-indazol-4-yl)phenyl)acetonitrile]
30 | 7.94 | 25.1 | Nc1ncc(-c2cc(C(F)(F)F)cc3[nH]ncc23)c2cccnc12 [Example 142, 5-(6-(trifluoromethyl)-1H-indazol-4-yl)-1,7-naphthyridin-8-amine]
31 | 6.31 | 63.1 | CN(C)C(=O)c1cccc(-c2cc(C(F)(F)F)cc3[nH]ncc23)c1 [Example 121, N,N-dimethyl-3-(6-(trifluoromethyl)-1H-indazol-4-yl)benzamide]
32 | 7.94 | 39.8 | Cc1nnc(-c2cccc(-c3cc(C(F)(F)F)cc4[nH]ncc34)c2)o1 [Example 37, 2-methyl-5-(3-(6-(trifluoromethyl)-1H-indazol-4-yl)phenyl)-1,3,4-oxadiazole]
33 | 6.31 | 25.1 | Cc1nc(C(=O)NCCO)ccc1-c1cc(C(F)(F)F)cc2[nH]ncc12 [Example 387, N-(2-hydroxyethyl)-6-methyl-5-(6-(trifluoromethyl)-1H-indazol-4-yl)picolinamide]
34 | 3.16 | 15.8 | COc1ccc(OC)c(-c2cc(C(F)(F)F)cc3[nH]ncc23)c1 [Example 86, 4-(2,5-dimethoxyphenyl)-6-(trifluoromethyl)-1H-indazole]
35 | 20 | 1000 | Cn1cc(-c2cc(C(F)(F)F)cc3[nH]ncc23)c(=O)n(CC(=O)N2CCOCC2)c1=O [Example 310, 1-methyl-3-(2-morpholino-2-oxoethyl)-5-(6-(trifluoromethyl)-1H-indazol-4-yl)pyrimidine-2,4(1H,3H)-dione]
36 | 5.01 | 39.8 | Cc1n[nH]cc1-c1cc(C(F)(F)F)cc2[nH]ncc12 [Example 22, 4-(3-methyl-1H-pyrazol-4-yl)-6-(trifluoromethyl)-1H-indazole]
37 | 5.01 | 25.1 | NC(=O)c1ccc(-c2cc(C(F)(F)F)cc3[nH]ncc23)cc1 [Example 7, 4-(6-(trifluoromethyl)-1H-indazol-4-yl)benzamide]
38 | 10 | 316 | Cn1cc(C(=O)NCCO)cc(-c2cc(C(F)(F)F)cc3[nH]ncc23)c1=O [Example 315, N-(2-hydroxyethyl)-1-methyl-6-oxo-5-(6-(trifluoromethyl)-1H-indazol-4-yl)-1,6-dihydropyridine-3-carboxamide]
39 | 10 | 158 | CN(C)C(=O)c1cc(F)cc(-c2cc(C(F)(F)F)cc3[nH]ncc23)c1 [Example 115, 3-fluoro-N,N-dimethyl-5-(6-(trifluoromethyl)-1H-indazol-4-yl)benzamide]
40 | 3.98 | 20 | FC(F)(F)c1cc(-c2ccc(N3CCOCC3)nc2)c2cn[nH]c2c1 [Example 89, 4-(5-(6-(trifluoromethyl)-1H-indazol-4-yl)pyridin-2-yl)morpholine]
